# Patent US20230139171A1 (SITA Information Networking Computing UK Limited, priority 2019, published 2023)
# Tests used:
# Type in all cases: cell-based
# [1] = biological target: T1, human TLR8 (Homo sapiens, UniProt Q9NR97); test: TLR8 inhibition reporter assay (HEK-Blue cells, SEAP reporter, R848 stimulation); conditions: HEK-Blue cells overexpressing human TLR8, SEAP reporter, R848 15.9 μM; read-out: TLR8 IC50
# T1 construct: host or cells: HEK-Blue cells
# T1 sequence (Q9NR97 27-1041): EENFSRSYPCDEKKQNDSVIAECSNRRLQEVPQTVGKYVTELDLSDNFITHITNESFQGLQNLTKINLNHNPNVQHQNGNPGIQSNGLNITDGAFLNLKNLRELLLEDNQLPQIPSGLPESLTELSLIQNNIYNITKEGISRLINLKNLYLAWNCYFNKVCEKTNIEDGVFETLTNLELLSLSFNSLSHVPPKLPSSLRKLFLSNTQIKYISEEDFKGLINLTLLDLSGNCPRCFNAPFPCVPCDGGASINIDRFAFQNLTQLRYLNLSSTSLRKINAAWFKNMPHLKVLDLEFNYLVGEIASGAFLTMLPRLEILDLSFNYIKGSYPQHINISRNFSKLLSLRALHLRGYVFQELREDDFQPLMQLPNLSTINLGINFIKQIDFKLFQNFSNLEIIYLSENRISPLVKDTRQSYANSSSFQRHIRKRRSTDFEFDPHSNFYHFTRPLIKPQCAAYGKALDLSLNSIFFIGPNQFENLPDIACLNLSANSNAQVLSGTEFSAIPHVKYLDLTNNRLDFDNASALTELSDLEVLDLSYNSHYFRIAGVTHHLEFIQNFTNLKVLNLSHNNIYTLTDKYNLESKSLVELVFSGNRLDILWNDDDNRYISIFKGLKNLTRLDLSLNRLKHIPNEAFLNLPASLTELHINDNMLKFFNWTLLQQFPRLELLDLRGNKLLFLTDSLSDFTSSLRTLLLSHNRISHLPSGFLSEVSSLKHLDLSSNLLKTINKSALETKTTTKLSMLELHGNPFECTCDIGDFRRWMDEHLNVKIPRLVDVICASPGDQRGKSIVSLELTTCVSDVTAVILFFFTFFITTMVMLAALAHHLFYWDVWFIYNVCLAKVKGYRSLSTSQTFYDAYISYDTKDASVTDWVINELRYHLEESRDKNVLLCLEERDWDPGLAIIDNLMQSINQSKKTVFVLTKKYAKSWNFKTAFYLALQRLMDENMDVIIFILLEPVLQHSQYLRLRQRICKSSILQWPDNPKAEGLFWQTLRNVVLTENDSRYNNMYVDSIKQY
# In short: (§1)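 Screening used HEK-Blue cells overexpressing one human TLR (7, 8 or 9) and an IFN-β minimal promoter–NF-κB/AP-1 SEAP construct. Stimulation lasted 22 h at 37 °C with receptor-specific agonist: gardiquimod, R848 or ODN2006 at 7.5 μM, 15.9 μM and 5 nM.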
# [2] = biological target: T2, human TLR7 (Homo sapiens, UniProt Q9NYK1); test: TLR7 inhibition reporter assay (HEK-Blue cells, SEAP reporter, gardiquimod stimulation); conditions: HEK-Blue cells overexpressing human TLR7, SEAP reporter, gardiquimod 7.5 μM; read-out: TLR7 IC50
# T2 construct: host or cells: HEK-Blue cells
# T2 sequence (Q9NYK1 27-1049): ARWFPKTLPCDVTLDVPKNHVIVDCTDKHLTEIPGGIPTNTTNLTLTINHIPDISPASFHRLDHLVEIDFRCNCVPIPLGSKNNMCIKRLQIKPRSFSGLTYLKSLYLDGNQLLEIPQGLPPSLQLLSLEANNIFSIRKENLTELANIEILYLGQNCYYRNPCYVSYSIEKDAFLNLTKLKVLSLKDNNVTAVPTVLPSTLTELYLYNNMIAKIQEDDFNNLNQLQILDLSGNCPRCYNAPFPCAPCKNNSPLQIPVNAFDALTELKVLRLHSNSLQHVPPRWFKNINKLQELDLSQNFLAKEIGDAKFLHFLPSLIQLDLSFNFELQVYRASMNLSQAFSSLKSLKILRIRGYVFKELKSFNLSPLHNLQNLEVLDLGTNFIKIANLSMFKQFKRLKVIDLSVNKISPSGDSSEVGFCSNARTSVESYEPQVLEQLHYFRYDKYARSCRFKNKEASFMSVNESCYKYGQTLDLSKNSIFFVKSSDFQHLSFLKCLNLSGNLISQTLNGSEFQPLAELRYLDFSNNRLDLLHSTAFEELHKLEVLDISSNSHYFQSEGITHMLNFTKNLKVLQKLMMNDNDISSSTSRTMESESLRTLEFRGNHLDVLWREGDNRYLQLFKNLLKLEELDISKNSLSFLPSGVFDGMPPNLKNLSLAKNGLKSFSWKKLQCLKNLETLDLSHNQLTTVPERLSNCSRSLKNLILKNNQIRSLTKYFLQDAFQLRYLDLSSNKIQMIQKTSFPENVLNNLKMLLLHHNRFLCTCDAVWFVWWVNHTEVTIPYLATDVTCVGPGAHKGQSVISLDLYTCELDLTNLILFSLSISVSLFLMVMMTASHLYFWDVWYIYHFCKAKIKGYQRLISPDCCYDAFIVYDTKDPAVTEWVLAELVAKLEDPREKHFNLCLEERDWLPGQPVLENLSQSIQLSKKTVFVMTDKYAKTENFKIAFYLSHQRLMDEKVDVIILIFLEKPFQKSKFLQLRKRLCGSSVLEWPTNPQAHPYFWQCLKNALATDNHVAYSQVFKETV
# In short: as §1
# [3] = biological target: T3, human TLR9 (Homo sapiens, UniProt Q9NR96); test: TLR9 inhibition reporter assay (HEK-Blue cells, SEAP reporter, ODN2006 stimulation); conditions: HEK-Blue cells overexpressing human TLR9, SEAP reporter, ODN2006 5 nM
# T3 construct: host or cells: HEK-Blue cells
# T3 sequence (Q9NR96 26-1032): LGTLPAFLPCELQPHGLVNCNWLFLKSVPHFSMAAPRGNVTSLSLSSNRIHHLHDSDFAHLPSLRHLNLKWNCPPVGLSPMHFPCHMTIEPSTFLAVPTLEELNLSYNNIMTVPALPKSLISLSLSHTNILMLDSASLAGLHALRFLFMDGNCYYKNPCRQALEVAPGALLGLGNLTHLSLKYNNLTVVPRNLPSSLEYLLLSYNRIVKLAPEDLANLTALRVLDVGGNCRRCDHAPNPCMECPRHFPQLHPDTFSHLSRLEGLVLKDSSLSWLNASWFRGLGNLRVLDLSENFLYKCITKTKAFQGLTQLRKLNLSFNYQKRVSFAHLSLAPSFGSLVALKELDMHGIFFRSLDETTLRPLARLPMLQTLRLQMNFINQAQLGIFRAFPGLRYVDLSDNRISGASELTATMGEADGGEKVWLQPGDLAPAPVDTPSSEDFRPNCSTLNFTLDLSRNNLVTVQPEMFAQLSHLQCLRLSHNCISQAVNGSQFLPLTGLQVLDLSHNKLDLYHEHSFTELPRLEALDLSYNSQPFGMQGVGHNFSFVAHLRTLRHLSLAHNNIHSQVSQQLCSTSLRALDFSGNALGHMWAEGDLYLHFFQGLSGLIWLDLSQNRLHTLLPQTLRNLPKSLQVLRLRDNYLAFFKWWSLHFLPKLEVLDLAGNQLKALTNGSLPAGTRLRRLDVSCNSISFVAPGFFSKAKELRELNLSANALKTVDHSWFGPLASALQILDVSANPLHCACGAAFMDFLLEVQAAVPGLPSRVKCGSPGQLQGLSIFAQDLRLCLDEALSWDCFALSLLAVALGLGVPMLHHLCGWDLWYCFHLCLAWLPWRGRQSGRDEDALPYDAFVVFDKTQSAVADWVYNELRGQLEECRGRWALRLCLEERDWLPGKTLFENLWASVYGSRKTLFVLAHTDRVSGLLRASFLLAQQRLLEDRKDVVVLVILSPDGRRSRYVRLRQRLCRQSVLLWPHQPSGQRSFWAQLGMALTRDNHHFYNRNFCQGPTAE
# Procedure: TLR7/8/9 Inhibition Reporter Assays
# HEK-Blue™-cells (Invivogen) overexpressing human TLR7, TLR8 or TLR9 receptors were used for screening inhibitors of these receptors using an inducible SEAP (secreted embryonic alkaline phosphatase) reporter gene under the control of the IFN-β minimal promoter fused to five NF-κB and AP-1-binding sites. Briefly, cells are seeded into Greiner 384 well plates (15000 cells per well for TLR7, 20,000 for TLR8 and 25,000 for TLR9) and then treated with test compounds in DMSO to yield a final dose response concentration range of 0.05 nM-50 μM. After a 30 minute compound pre-treatment at room temperature, the cells are then stimulated with a TLR7 ligand (gardiquimod at a final concentration of 7.5 μM), TLR8 ligand (R848 at a final concentration of 15.9 μM) or TLR9 ligand (ODN2006 at a final concentration of 5 nM) to activate NF-κB and AP-1 which induce the production of SEAP. After a 22 hour incubation at 37° C., 5% CO2, SEAP levels are determined with the addition of HEK-Blue™ Detection reagent (Invivogen), a cell culture medium that allows for detection of SEAP, according to manufacturer's specifications. The percent inhibition is determined as the % reduction in the HEK-Blue signal present in wells treated with agonist plus DMSO alone compared to wells treated with a known inhibitor.
SMILES,IC50 [1] [nM],IC50 [2] [nM],IC50 [3] [nM]
"COc1cc(-c2[nH]c3sc(C4CCC(N5CC6(COC6)C5)CC4)nc3c2C(C)C)cn2ncnc12 (single isomer, unassigned) [Example 68, 6-(4-(6-isopropyl-5-(8-methoxy-[1,2,4]triazolo[1,5-a]pyridin-6-yl)-4H-pyrrolo[3,2-d]thiazol-2-yl)cyclohexyl)-2-oxa-6-azaspiro[3.3]heptane]",0.58,0.81,3500
"COc1cc(-c2[nH]c3sc(C4CCC(N5CC6(COC6)C5)CC4)nc3c2C(C)C)cn2ncnc12 (single isomer, unassigned) [Example 69, 6-(4-(6-isopropyl-5-(8-methoxy-[1,2,4]triazolo[1,5-a]pyridin-6-yl)-4H-pyrrolo[3,2-d]thiazol-2-yl)cyclohexyl)-2-oxa-6-azaspiro[3.3]heptane]",35.6,4.17,6320
"COc1cc(-c2c(C(C)C)c3nc(C4CCN(CC(F)(F)F)CC4)sc3n2CC(F)(F)F)cn2ncnc12 [Example 9, 6-isopropyl-5-(8-methoxy-[1,2,4]triazolo[1,5-a]pyridin-6-yl)-4-(2,2,2-trifluoroethyl)-2-(1-(2,2,2-trifluoroethyl)piperidin-4-yl)-4H-pyrrolo[3,2-d]thiazole]",,,4160
"Cc1cc(-c2[nH]c3sc(N4CCNC[C@H]4C)nc3c2C(C)C)cn2ncnc12 [Example 311, (R)-6-isopropyl-5-(8-methyl-[1,2,4]triazolo[1,5-a]pyridin-6-yl)-2-(2-methylpiperazin-1-yl)-4H-pyrrolo[3,2-d]thiazole]",,1400,18800
"Cc1cc(-c2[nH]c3sc(N4CCN(CC(C)C)C[C@H]4C)nc3c2C(C)C)cn2ncnc12 [Example 361, (R)-2-(4-isobutyl-2-methylpiperazin-1-yl)-6-isopropyl-5-(8-methyl-[1,2,4]triazolo[1,5-a]pyridin-6-yl)-4H-pyrrolo[3,2-d]thiazole]",,719,45600
"Cc1cc(-c2[nH]c3sc(N4CCN(C5CCC5)C[C@H]4C)nc3c2C(C)C)cn2ncnc12 [Example 362, (R)-2-(4-cyclobutyl-2-methylpiperazin-1-yl)-6-isopropyl-5-(8-methyl-[1,2,4]triazolo[1,5-a]pyridin-6-yl)-4H-pyrrolo[3,2-d]thiazole]",,,25100

# Further compounds by falling IC50 [3], results first:
IC50 [1] [nM],IC50 [2] [nM],IC50 [3] [nM],SMILES
1.5,4.92,43500,"Cc1c(-c2[nH]c3sc(C4CCC(NC5CCS(=O)(=O)C5)CC4)nc3c2C(C)C)cn2ncnc2c1C (racemic) [Example 230, 3-((4-(5-(7,8-dimethyl-[1,2,4]triazolo[1,5-a]pyridin-6-yl)-6-isopropyl-4H-pyrrolo[3,2-d]thiazol-2-yl)cyclohexyl)amino)tetrahydrothiophene 1,1-dioxide]"
,1280,38100,"COCCN1CCN(c2nc3c(C(C)C)c(-c4cc(C)c5ncnn5c4)[nH]c3s2)[C@H](C)C1 [Example 357, (R)-6-isopropyl-2-(4-(2-methoxyethyl)-2-methylpiperazin-1-yl)-5-(8-methyl-[1,2,4]triazolo[1,5-a]pyridin-6-yl)-4H-pyrrolo[3,2-d]thiazole]"
16.9,3.59,5710,"COc1cc(-c2[nH]c3sc(C4CCC(NC5COC5)CC4)nc3c2C(C)C)cn2ncnc12 (single isomer, unassigned) [Example 66, N-(4-(6-isopropyl-5-(8-methoxy-[1,2,4]triazolo[1,5-a]pyridin-6-yl)-4H-pyrrolo[3,2-d]thiazol-2-yl)cyclohexyl)oxetan-3-amine]"
12.9,12.6,2250,"COc1cc(-c2[nH]c3sc(C4CCC(N5CC(CO)(CO)C5)CC4)nc3c2C(C)C)cn2ncnc12 (single isomer, unassigned) [Example 67, (1-(4-(6-isopropyl-5-(8-methoxy-[1,2,4]triazolo[1,5-a]pyridin-6-yl)-4H-pyrrolo[3,2-d]thiazol-2-yl)cyclohexyl)azetidine-3,3-diyl)dimethanol]"
